From the supplement of paper PMC10307832

Columns and labels:
Assay in all cases: relative viability (nuclei count vs DMSO), 5 days (fraction); higher = more cells survive
[1] = compound: Nc1ncn([C@H]2C[C@H](O)[C@@H](CO)O2)c(=O)n1 [Decitabine] + CS(=O)(=O)N1CCN(Cc2cc3nc(-c4cccc5[nH]ncc45)nc(N4CCOCC4)c3s2)CC1 [Pictilisib] (partner 1 µM)
In short: (§1)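 Lung cancer cell lines were seeded in 1536-well plates and dosed by pin tool the next day, with either a single drug or a fixed anchor-drug dose combined with five library-drug doses (not always all listed) spaced in √10 steps. Five days later, one step fixed the cells and stained their nuclei (final 0.05% Triton X-100, 1% formaldehyde, 1 ug/ml Hoechst), and nuclei were counted on 4× images. Relative viability is the nuclei count in treated wells divided by the count in vehicle wells, and each value is the median of duplicate plates.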

[2] = compound: O=C(C[C@H]1NCCC[C@@H]1O)Cn1cnc2cc(Br)c(Cl)cc2c1=O (racemic) [Halofuginone] + Nc1nc2[nH]cc(CCc3ccc(C(=O)N[C@@H](CCC(=O)O)C(=O)O)cc3)c2c(=O)[nH]1 [Pemetrexed] (partner 0.2 µM)
In short: as §1

[3] = compound: Nc1ncn([C@H]2C[C@H](O)[C@@H](CO)O2)c(=O)n1 [Decitabine] + C[C@]1(O)C[C@@H](c2nc(-c3ccc4ccc(-c5ccccc5)nc4c3)c3c(N)nccn32)C1 [Linsitinib] (partner 1 µM)
In short: as §1

[4] = compound: COc1cc2c(Oc3ccc4[nH]c(C)cc4c3F)ncnc2cc1OCCCN1CCCC1 [Cediranib] + NC(=O)Nc1cc(-c2cccc(F)c2)sc1C(=O)N[C@H]1CCCNC1 [AZD7762] (partner 0.2 µM)
In short: as §1

Cell Line	relative viability ([1]; first compound 0.04 µM)	relative viability ([1]; first compound 0.1265 µM)	relative viability ([1]; first compound 0.4 µM)	relative viability ([1]; first compound 1.265 µM)	relative viability ([1]; first compound 4 µM)	relative viability ([2]; first compound 0.001 µM)	relative viability ([2]; first compound 0.003162 µM)	relative viability ([2]; first compound 0.01 µM)	relative viability ([2]; first compound 0.03162 µM)	relative viability ([2]; first compound 0.1 µM)	relative viability ([3]; first compound 0.04 µM)	relative viability ([3]; first compound 0.1265 µM)	relative viability ([3]; first compound 0.4 µM)	relative viability ([3]; first compound 1.265 µM)	relative viability ([3]; first compound 4 µM)	relative viability ([4]; first compound 0.04 µM)	relative viability ([4]; first compound 0.1265 µM)	relative viability ([4]; first compound 0.4 µM)	relative viability ([4]; first compound 1.265 µM)	relative viability ([4]; first compound 4 µM)
NCI-H2023	0.244	0.252	0.174	0.142	0.143	0.297	0.185	0.213	0.152	0.0841	0.588	0.524	0.406	0.237	0.195	–	–	–	–	–
EBC-1	0.277	0.295	0.252	0.214	0.169	–	–	–	–	–	0.693	0.704	0.417	0.316	0.247	–	–	–	–	–
NCI-H1666	0.458	0.478	0.387	0.319	0.372	0.883	0.78	0.904	0.878	0.806	0.816	0.706	0.672	0.629	0.689	0.868	0.757	0.907	0.767	0.894
NCI-H1975	0.293	0.254	0.226	0.238	0.218	0.281	0.297	0.274	0.263	0.146	0.706	0.525	0.346	0.326	0.369	0.687	0.73	0.782	0.799	0.602
NCI-H2170	0.256	0.254	0.312	0.285	0.269	0.271	0.202	0.273	0.25	0.275	–	–	–	–	–	0.871	–	0.743	0.611	1.1
NCI-H1355	0.529	0.44	0.293	0.254	0.23	1.07	1	1.02	1.03	0.919	0.663	0.622	0.52	0.348	0.827	0.806	1.08	0.717	0.668	0.714
NCI-H1648	–	–	–	–	–	0.666	0.732	0.92	0.796	0.91	–	–	–	–	–	0.586	0.533	0.636	0.514	0.72
A549	0.444	0.49	0.37	0.256	0.166	–	–	–	–	–	0.535	0.731	0.554	0.299	0.151	–	–	–	–	–
SK-MES-1	0.258	0.367	0.427	0.271	0.243	1.07	0.983	0.877	0.74	0.253	0.928	0.845	0.554	0.437	0.339	–	–	–	–	–
EKVX	0.37	0.387	0.391	0.252	0.241	0.42	0.474	0.396	0.409	0.416	0.792	0.854	0.657	0.386	0.306	0.731	0.609	0.636	–	0.798
RERF-LC-KJ	0.508	0.607	0.403	0.368	0.354	0.452	0.45	0.434	0.454	0.461	0.836	0.763	0.239	0.677	0.637	0.92	0.411	0.881	0.725	0.923
NCI-H1755	0.385	0.411	0.291	0.365	0.343	0.418	0.469	0.413	0.423	0.484	0.936	0.948	0.915	0.688	0.429	0.423	0.617	0.375	0.43	0.425
NCI-H661	0.346	0.344	0.372	0.288	0.242	0.927	0.896	0.868	0.768	0.642	0.566	0.502	0.406	0.248	0.267	–	–	–	–	–
LOU-NH91	0.518	0.478	0.517	0.518	0.495	0.405	0.391	0.425	0.4	0.403	0.575	0.839	0.779	0.693	0.735	0.803	0.86	0.693	0.697	0.803
LXF-289	0.75	0.808	0.471	0.4	0.317	0.913	0.972	0.849	0.864	0.788	0.893	0.674	0.566	0.372	0.395	1.12	–	1.02	0.971	1.11
HCC-44	0.537	0.71	0.353	0.412	0.372	0.697	0.654	0.619	0.622	0.621	0.686	0.644	0.495	0.292	0.351	1.09	0.843	1	0.941	1.04
HARA	0.367	0.564	0.285	0.236	0.15	0.228	0.231	0.283	0.247	0.222	0.896	0.776	0.69	0.382	0.312	0.35	0.279	0.234	0.267	0.251
201T	0.655	0.817	0.93	0.695	0.531	0.31	0.329	0.346	0.311	0.313	1.06	1.16	1.3	1.1	0.924	0.705	0.445	0.607	0.521	0.618
LC-2-ad	0.359	0.37	0.495	0.3	0.275	0.273	0.305	0.251	0.246	0.269	0.732	0.746	0.51	0.497	0.378	0.92	1.02	0.759	0.88	0.85
NCI-H596	0.38	0.416	0.304	0.358	0.633	0.514	0.506	0.468	0.511	0.451	1.07	0.983	0.885	0.826	0.839	1.21	1.31	0.853	0.969	1.2
NCI-H1437	0.455	0.408	0.287	0.172	0.166	0.318	0.337	0.329	0.307	0.254	0.894	0.771	0.385	0.259	0.233	1.12	1.1	1.15	1.07	0.998

Cell Line	relative viability ([1]; first compound 0.04 µM)	relative viability ([1]; first compound 0.1265 µM)	relative viability ([1]; first compound 0.4 µM)	relative viability ([1]; first compound 1.265 µM)	relative viability ([1]; first compound 4 µM)	relative viability ([2]; first compound 0.001 µM)	relative viability ([2]; first compound 0.003162 µM)	relative viability ([2]; first compound 0.01 µM)	relative viability ([2]; first compound 0.03162 µM)	relative viability ([2]; first compound 0.1 µM)	relative viability ([3]; first compound 0.04 µM)	relative viability ([3]; first compound 0.1265 µM)	relative viability ([3]; first compound 0.4 µM)	relative viability ([3]; first compound 1.265 µM)	relative viability ([3]; first compound 4 µM)	relative viability ([4]; first compound 0.04 µM)	relative viability ([4]; first compound 0.1265 µM)	relative viability ([4]; first compound 0.4 µM)	relative viability ([4]; first compound 1.265 µM)	relative viability ([4]; first compound 4 µM)
NCI-H727	0.272	0.353	0.316	0.418	0.257	–	–	–	–	–	0.303	0.232	0.302	0.282	0.234	0.601	0.379	0.636	0.626	0.538
PC-3 [JPC-3]	–	0.733	0.434	0.609	0.646	1.1	1.12	0.983	1.21	0.854	–	0.8	0.676	0.64	0.607	0.758	–	0.769	0.749	0.783
SW 1573	0.535	0.425	0.491	0.279	0.202	0.914	–	0.775	0.574	0.208	0.666	0.793	0.697	0.408	0.392	–	–	–	–	–
NCI-H2228	0.355	0.441	0.179	0.287	0.232	0.32	0.29	0.345	0.273	0.074	0.377	0.589	0.613	0.356	0.291	–	–	–	–	–
NCI-H1650	0.445	0.595	0.272	0.47	0.399	0.339	0.388	0.375	0.325	0.284	–	–	–	–	–	–	–	–	–	–
COR-L 105	0.327	0.442	0.405	0.341	0.292	1.09	1.05	0.973	0.981	0.964	1.02	0.768	0.738	0.506	0.486	–	–	–	–	–
Calu-6	0.76	0.685	0.468	0.334	0.243	–	–	–	–	–	0.807	0.682	0.494	0.33	0.193	–	–	–	–	–
NCI-H2009	0.773	0.672	0.351	0.386	0.245	1.04	0.999	0.999	0.977	0.548	1.08	0.801	0.601	0.383	0.33	–	–	–	–	–
NCI-H1299	0.836	0.881	0.829	0.619	0.505	–	–	–	–	–	0.976	1.06	1.03	0.918	0.802	–	–	–	–	–
ChaGo-K-1	0.552	0.705	0.446	0.509	0.492	0.297	0.254	0.251	0.256	0.258	–	–	–	–	–	0.843	0.684	0.886	0.9	0.948
NCI-H1703	0.29	0.258	0.196	0.234	0.181	–	–	–	–	–	0.546	0.553	0.226	0.242	0.201	0.116	–	0.135	0.122	0.123
NCI-H522	–	–	–	–	–	1.08	0.968	1.03	1.11	0.918	–	–	–	–	–	0.84	0.643	0.887	0.729	0.744
ABC-1	0.812	0.728	0.812	0.443	0.505	–	–	–	–	–	0.705	0.677	0.639	0.611	0.523	0.635	0.729	0.813	0.905	0.723
IA-LM	0.253	0.269	0.163	0.147	0.0969	–	–	–	–	–	0.281	0.461	0.174	0.155	0.129	–	–	–	–	–
COR-L23	0.527	0.619	0.239	0.178	0.172	0.212	0.19	0.2	0.192	0.183	0.647	0.482	0.374	0.272	0.19	–	–	–	–	–
SW 900	–	–	–	–	–	0.483	0.505	–	0.432	0.445	–	–	–	–	–	0.839	0.536	0.594	0.621	0.835
SK-LU-1	0.53	0.447	0.306	0.365	0.282	1.03	0.981	0.912	0.921	0.409	0.76	0.744	0.487	0.545	0.45	–	–	–	–	–
NCI-H1563	0.682	0.63	0.779	0.693	0.635	0.782	0.788	0.825	0.685	0.585	1.33	1.21	1.41	1.23	1.17	–	–	–	–	–
NCI-H520	0.315	0.271	0.241	0.222	0.198	0.726	0.662	0.784	0.611	0.246	1.13	0.916	0.633	0.333	0.324	–	–	–	–	–
NCI-H2342	–	–	–	–	–	0.801	0.702	0.774	0.76	0.727	–	–	–	–	–	0.502	0.635	0.421	0.402	0.464
